Reference: publication PMC9146984, “A Novel Proline-Rich Cathelicidin from the Alpaca Vicugna pacos with Potency to Combat Antibiotic-Resistant Bacteria: Mechanism of Action and the Functional Role of the C-Terminal Region” (Membranes, 2022)
In brackets after ≈: the same amount, converted by molar mass. Like-named read-outs stand apart in the source and are kept apart here. Where a SMILES comes first, the peptide text is derived from it. Bridges are numbered along the chain shown (N, C = ends). [ ]: non-standard residue; d: D form. The star is where a group is joined. X1 = CC[C@H](C)CCCCC(=O)*; Dab = NCC[C@H](N)C(=O)O

Columns and labels:
[1] = tested on: E. coli BW25113 ΔmdtM; format: cell-based, Escherichia coli; conditions: Mueller–Hinton broth, 24 h, 37 °C, median
Protocol: (§1) The reduction of resazurin to resorufin was measured.

[2] = tested on: E. coli BW25113 ΔompF; format: cell-based, Escherichia coli; conditions: Mueller–Hinton broth, 24 h, 37 °C, median
Protocol: as §1

[3] = tested on: E. coli BW25113 ΔsbmA; format: cell-based, Escherichia coli; conditions: Mueller–Hinton broth, 24 h, 37 °C, median
Protocol: as §1

[4] = tested on: E. coli MDR CI 1057; conditions: Mueller-Hinton broth supplemented with 0.9% NaCl; for Minimum inhibitory concentration E.coli MDR 1057 14 days w/o AMP: after 14 passages without antimicrobial agents; for Minimum inhibitory concentration E.coli MDR 1057 0 days: before passages
Protocol: (§2) Bacterial test cultures were grown in the Mueller-Hinton broth (MH; Sigma, St. Louis, MO, USA) at 37 °C to mid-log phase and then diluted with the 2× MH medium supplemented with 1.8% NaCl or without salt so that to reach a final cell concentration of 10^6 CFU/mL. 50 µL of the obtained bacterial suspension were added to aliquots of 50 µL of the peptide solutions serially diluted with sterilized 0.1% bovine serum albumin (BSA) in 96-well flat-bottom polystyrene microplates (Eppendorf #0030730011, Hamburg, Germany). […] To verify MIC values, the respiratory activity of the bacteria was determined. Briefly, 20 µL of 0.1 mg/mL resazurin (a redox indicator; Sigma, St. Louis, MO, USA) was added to the wells after 24 h of incubation, and the plate was incubated for an additional two hours. The reduction of resazurin to resorufin was measured. […] The results were expressed as the median values determined based on at least three independent experiments performed in triplicate.
(§3) Resistance induction experiments were performed using the previously described method. Briefly, on day one, the overnight culture of wild-type bacteria was diluted with the 2× MH broth supplemented with 1.8% NaCl to reach a final cell concentration of 10^6 CFU/mL. 50 µL of the obtained bacterial suspension were added to aliquots of 50 µL of the peptide solutions serially diluted with the sterilized 0.1% BSA in 96-well flat-bottom polystyrene microplates. After incubation for 20 ± 2 h at 37 °C and 950 rpm, MICs were determined as described above. For each subsequent daily transfer, 2–4 μL of the inoculum taken from the first well containing a sub-inhibitory drug concentration were diluted with 2 mL of the fresh 2× MH broth supplemented with 1.8% NaCl. […] 14 repeated passages in the presence of antimicrobial agents were made for each bacterial strain during the experiment. Bacteria that grew at the highest concentration of AMPs on the final day were passaged a further 3 times on drug-free agar plates before determining the final MIC value.

[5] = tested on: VicBac[1–22]-resistant E. coli MDR 1057 strain; conditions: Mueller-Hinton broth supplemented with 0.9% NaCl; strain selected 14 days with VicBac[1-22]; cross-resistance
Protocol: as §2, §3

[6] = tested on: E. coli BW25113; format: cell-based, Escherichia coli; conditions: Mueller–Hinton broth, 24 h, 37 °C, median
Protocol: as §1

[7] = tested on: E. coli MDR 1057; conditions: MH broth with 0.9% NaCl, 14 passages with the same agent (VicBac[1–22]: after 10 passages)
Protocol: Resistance induction experiments were performed using the previously described method. Briefly, on day one, the overnight culture of wild-type bacteria was diluted with the 2× MH broth supplemented with 1.8% NaCl to reach a final cell concentration of 10^6 CFU/mL. 50 µL of the obtained bacterial suspension were added to aliquots of 50 µL of the peptide solutions serially diluted with the sterilized 0.1% BSA in 96-well flat-bottom polystyrene microplates. After incubation for 20 ± 2 h at 37 °C and 950 rpm, MICs were determined as described above. For each subsequent daily transfer, 2–4 μL of the inoculum taken from the first well containing a sub-inhibitory drug concentration were diluted with 2 mL of the fresh 2× MH broth supplemented with 1.8% NaCl. […] Bacteria that grew at the highest concentration of AMPs on the final day were passaged a further 3 times on drug-free agar plates before determining the final MIC value.

## CC[C@H](C)[C@H](NC(=O)[C@H](CCCNC(=N)N)NC(=O)[C@@H](N)CCCNC(=N)N)C(=O)N[C@@H](CCCNC(=N)N)C(=O)N1CCC[C@H]1C(=O)N[C@@H](CCCNC(=N)N)C(=O)N1CCC[C@H]1C(=O)N1CCC[C@H]1C(=O)N[C@@H](CCCNC(=N)N)C(=O)N[C@@H](CC(C)C)C(=O)N1CCC[C@H]1C(=O)N[C@@H](CCCNC(=N)N)C(=O)N1CCC[C@H]1C(=O)N[C@@H](CCCNC(=N)N)C(=O)N1CCC[C@H]1C(=O)N[C@@H](CCCNC(=N)N)C(=O)N1CCC[C@H]1C(=O)N[C@@H](CC(C)C)C(=O)N1CCC[C@H]1C(=O)N[C@@H](Cc1ccccc1)C(=O)N1CCC[C@H]1C(=O)N[C@@H](CCCNC(=N)N)C(=O)O [Bac7[1-22], reference compound] (H-RRIRPRPPRLPRPRPRPLPFPR-OH)
[1]; 0.9% NaCl: +
  Minimum inhibitory concentration, E. coli strain ΔmdtM: 1 µM (≈ 2.78 µg/mL)
[1]; 0.9% NaCl: −
  Minimum inhibitory concentration, E. coli strain ΔmdtM: 4 µM (≈ 11.1 µg/mL)
[2]; 0.9% NaCl: +
  Minimum inhibitory concentration, E. coli strain ΔompF: 32 µM (≈ 89.1 µg/mL)
[2]; 0.9% NaCl: −
  Minimum inhibitory concentration, E. coli strain ΔompF: 2 µM (≈ 5.57 µg/mL)
[3]; 0.9% NaCl: +
  Minimum inhibitory concentration, E. coli strain ΔsbmA: 32 µM (≈ 89.1 µg/mL)
[3]; 0.9% NaCl: −
  Minimum inhibitory concentration, E. coli strain ΔsbmA: 1 µM (≈ 2.78 µg/mL)
[4]
  Minimum inhibitory concentration E.coli MDR 1057 14 days w/o AMP: 1 µM (≈ 2.78 µg/mL)
  Minimum inhibitory concentration E.coli MDR 1057 0 days: 1 µM (≈ 2.78 µg/mL)
[5]
  Minimum inhibitory concentration E.coli MDR 1057 14 days with VicBac [1-22]: > 128 µM

## CC[C@H](C)[C@H](NC(=O)[C@H](CCCCN)NC(=O)[C@H](CCC(=O)O)NC(=O)[C@H](CCCCN)NC(=O)[C@H](CO)NC(=O)[C@H](CCCCN)NC(=O)[C@H](CCCNC(=N)N)NC(=O)[C@H](Cc1ccccc1)NC(=O)[C@H](Cc1ccccc1)NC(=O)[C@H](CC(=O)O)NC(=O)CNC(=O)[C@H](CC(C)C)NC(=O)[C@@H](N)CC(C)C)C(=O)NCC(=O)N[C@@H](CCCCN)C(=O)N[C@@H](CCC(=O)O)C(=O)N[C@@H](Cc1ccccc1)C(=O)N[C@@H](CCCCN)C(=O)N[C@@H](CCCNC(=N)N)C(=O)N[C@H](C(=O)N[C@H](C(=O)N[C@@H](CCC(N)=O)C(=O)N[C@@H](CCCNC(=N)N)C(=O)N[C@H](C(=O)N[C@@H](CCCCN)C(=O)N[C@@H](CC(=O)O)C(=O)N[C@@H](Cc1ccccc1)C(=O)N[C@@H](CC(C)C)C(=O)N[C@@H](CCCNC(=N)N)C(=O)N[C@@H](CC(N)=O)C(=O)N[C@@H](CC(C)C)C(=O)N[C@H](C(=O)N1CCC[C@H]1C(=O)N[C@@H](CCCNC(=N)N)C(=O)N[C@H](C(=O)N[C@@H](CCC(=O)O)C(=O)N[C@@H](CO)C(=O)O)[C@@H](C)O)C(C)C)[C@@H](C)CC)C(C)C)[C@@H](C)CC [LL-37, reference compound]
[1]; 0.9% NaCl: +
  Minimum inhibitory concentration, E. coli strain ΔmdtM: 4 µM (≈ 18 µg/mL)
[1]; 0.9% NaCl: −
  Minimum inhibitory concentration, E. coli strain ΔmdtM: 4 µM (≈ 18 µg/mL)
[2]; 0.9% NaCl: +
  Minimum inhibitory concentration, E. coli strain ΔompF: 2 µM (≈ 8.99 µg/mL)
[2]; 0.9% NaCl: −
  Minimum inhibitory concentration, E. coli strain ΔompF: 4 µM (≈ 18 µg/mL)
[3]; 0.9% NaCl: +
  Minimum inhibitory concentration, E. coli strain ΔsbmA: 2 µM (≈ 8.99 µg/mL)
[3]; 0.9% NaCl: −
  Minimum inhibitory concentration, E. coli strain ΔsbmA: 4 µM (≈ 18 µg/mL)
[6]; 0.9% NaCl: +
  Minimum inhibitory concentration, E. coli strain BW25113: 2 µM (≈ 8.99 µg/mL)
[6]; 0.9% NaCl: −
  Minimum inhibitory concentration, E. coli strain BW25113: 4 µM (≈ 18 µg/mL)
[4]
  Minimum inhibitory concentration E.coli MDR 1057 14 days w/o AMP: 4 µM (≈ 18 µg/mL)
  Minimum inhibitory concentration E.coli MDR 1057 0 days: 4 µM (≈ 18 µg/mL)
[5]
  Minimum inhibitory concentration E.coli MDR 1057 14 days with VicBac [1-22]: 4 µM
[7]
  increase in MIC value after serial passage selection: 2 fold

## CC(C)C[C@H](NC(=O)[C@H](CCCNC(=N)N)NC(=O)[C@@H]1CCCN1C(=O)[C@@H]1CCCN1C(=O)[C@H](Cc1ccccc1)NC(=O)[C@H](Cc1ccccc1)NC(=O)[C@@H]1CCCN1C(=O)[C@@H]1CCCN1C(=O)[C@@H]1CCCN1C(=O)[C@H](CCCNC(=N)N)NC(=O)[C@@H]1CCCN1C(=O)[C@H](CCCNC(=N)N)NC(=O)[C@@H]1CCCN1C(=O)[C@H](CC(C)C)NC(=O)[C@H](Cc1ccc(O)cc1)NC(=O)[C@@H]1CCCN1C(=O)[C@@H]1CCCN1C(=O)[C@H](CCCNC(=N)N)NC(=O)[C@@H]1CCCN1C(=O)[C@H](CCCNC(=N)N)NC(=O)[C@H](CCCNC(=N)N)NC(=O)[C@@H](N)CCCNC(=N)N)C(=O)O [PR-39[1-22]] (H-RRRPRPPYLPRPRPPPFFPPRL-OH; N-terminus and C-terminus assumed)
[4]
  Minimum inhibitory concentration E.coli MDR 1057 14 days w/o AMP: 2 µM (≈ 5.53 µg/mL)
  Minimum inhibitory concentration E.coli MDR 1057 0 days: 2 µM (≈ 5.53 µg/mL)
[5]
  Minimum inhibitory concentration E.coli MDR 1057 14 days with VicBac [1-22]: > 128 µM

## CC[C@H](C)CCCCC(=O)N[C@@H](CCN)C(=O)N[C@H](C(=O)N[C@@H](CCN)C(=O)N[C@H]1CCNC(=O)[C@H]([C@@H](C)O)NC(=O)[C@H](CCN)NC(=O)[C@H](CCN)NC(=O)[C@H](CC(C)C)NC(=O)[C@@H](Cc2ccccc2)NC(=O)[C@H](CCN)NC1=O)[C@@H](C)O [Polymyxin B, polymyxin B] (X1-[Dab]T[Dab][Dab][Dab][dF]L[Dab][Dab]T; lactam 4-C (inferred); N-terminus assumed)
[4]
  Minimum inhibitory concentration E.coli MDR 1057 14 days w/o AMP: 0.125 µM (≈ 0.15 µg/mL)
  Minimum inhibitory concentration E.coli MDR 1057 0 days: 0.125 µM (≈ 0.15 µg/mL)
[5]
  Minimum inhibitory concentration E.coli MDR 1057 14 days with VicBac [1-22]: 1 µM
[7]
  increase in MIC value after serial passage selection: 128 fold

## CC[C@H](C)[C@H](NC(=O)[C@H](CCCNC(=N)N)NC(=O)[C@@H](N)CCCNC(=N)N)C(=O)N[C@@H](CCCNC(=N)N)C(=O)N[C@@H](CCCNC(=N)N)C(=O)N1CCC[C@H]1C(=O)N[C@@H](CCCNC(=N)N)C(=O)N[C@@H](CC(C)C)C(=O)N1CCC[C@H]1C(=O)N[C@@H](CCCNC(=N)N)C(=O)N1CCC[C@H]1C(=O)N[C@@H](CCCNC(=N)N)C(=O)N[C@H](C(=O)N1CCC[C@H]1C(=O)N[C@@H](CCCNC(=N)N)C(=O)N1CCC[C@H]1C(=O)N[C@@H](CCCNC(=N)N)C(=O)N[C@H](C(=O)N1CCC[C@H]1C(=O)N1CCC[C@H]1C(=O)O)[C@@H](C)CC)C(C)C [VicBac[1-20]] (H-RRIRRPRLPRPRVPRPRIPP-OH; N-terminus and C-terminus assumed)
[1]; 0.9% NaCl: +
  Minimum inhibitory concentration, E. coli strain ΔmdtM: 4 µM (≈ 10.2 µg/mL)
[1]; 0.9% NaCl: −
  Minimum inhibitory concentration, E. coli strain ΔmdtM: 8 µM (≈ 20.3 µg/mL)
[2]; 0.9% NaCl: +
  Minimum inhibitory concentration, E. coli strain ΔompF: 64 µM (≈ 163 µg/mL)
[2]; 0.9% NaCl: −
  Minimum inhibitory concentration, E. coli strain ΔompF: 16 µM (≈ 40.7 µg/mL)
[3]; 0.9% NaCl: +
  Minimum inhibitory concentration, E. coli strain ΔsbmA: > 64 µM
[3]; 0.9% NaCl: −
  Minimum inhibitory concentration, E. coli strain ΔsbmA: 8 µM (≈ 20.3 µg/mL)

## CC[C@H](C)[C@H](NC(=O)[C@H](CCCNC(=N)N)NC(=O)[C@@H](N)CCCNC(=N)N)C(=O)N[C@@H](CCCNC(=N)N)C(=O)N[C@@H](CCCNC(=N)N)C(=O)N1CCC[C@H]1C(=O)N[C@@H](CCCNC(=N)N)C(=O)N[C@@H](CC(C)C)C(=O)N1CCC[C@H]1C(=O)N[C@@H](CCCNC(=N)N)C(=O)N1CCC[C@H]1C(=O)N[C@@H](CCCNC(=N)N)C(=O)N[C@H](C(=O)N1CCC[C@H]1C(=O)O)C(C)C [VicBac[1-14]] (H-RRIRRPRLPRPRVP-OH; N-terminus and C-terminus assumed)
[1]; 0.9% NaCl: +
  Minimum inhibitory concentration, E. coli strain ΔmdtM: > 64 µM
[1]; 0.9% NaCl: −
  Minimum inhibitory concentration, E. coli strain ΔmdtM: 32 µM (≈ 58.4 µg/mL)
[2]; 0.9% NaCl: +
  Minimum inhibitory concentration, E. coli strain ΔompF: > 64 µM
[2]; 0.9% NaCl: −
  Minimum inhibitory concentration, E. coli strain ΔompF: 64 µM (≈ 117 µg/mL)
[3]; 0.9% NaCl: +
  Minimum inhibitory concentration, E. coli strain ΔsbmA: > 64 µM
[3]; 0.9% NaCl: −
  Minimum inhibitory concentration, E. coli strain ΔsbmA: 64 µM (≈ 117 µg/mL)
